# Patent US10144938B2, “Methods of processing aromatic compounds” (WISCONSIN ALUMNI RESEARCH FOUNDATION, priority 2015, dated 2018)
# How the values were obtained:
# [1] = tested on: R. sphaeroides 2.4.1; experiment: Glucose and xylose consumption in synthetic hydrolysate with individual aromatics added; assay type: cell-based, Rhodobacter sphaeroides; conditions: individual aromatics at concentrations present in SynH2, diluted to 20% strength, FIG. 9
# Source text: For comparison, glucose and xylose utilization in 20% SynH2^− (no aromatics), as well as in 20% ACSH and 20% AHPCSH are also included.
# [2] = tested on: bacterial or yeast ethanologens; conditions: literature reports; cited from earlier work
SMILES,Effect on glucose utilization [1],Inhibitory to bacterial or yeast ethanologens [2]
CC(=O)c1ccc(O)cc1 [4-Hydroxyacetophenone],inhibited glucose utilization,inhibitory
O=Cc1ccc(O)cc1 [4-Hydroxybenzaldehyde],inhibited glucose utilization,inhibitory
COc1cc(C(C)=O)ccc1O [Acetovanillone],–,inhibitory
O=C(O)c1ccccc1 [Benzoate],–,inhibitory
COc1cc(C=O)ccc1O [Vanillin],–,inhibitory
O=C(O)/C=C/c1ccc(O)cc1 [p-Coumaric acid],inhibited glucose utilization,inhibitory
